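Assay format: 96-well plates, 48-hour exposure. At the TGI there is no net growth.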
Columns and labels:
Assay in all cases: DTP human tumour cell line panel, 48 h
[1] = test system: 786-0 renal
[2] = test system: A549 NSCLC
[3] = test system: ACHN renal
[4] = test system: BT-549 breast
[5] = test system: CAKI-1 renal
[6] = test system: CCRF-CEM leukemia
[7] = test system: COLO 205 colon
[8] = test system: DU-145 prostate
[9] = test system: EKVX NSCLC
[10] = test system: HCC-2998 colon
[11] = test system: HCT-116 colon
[12] = test system: HCT-15 colon
[13] = test system: HL-60(TB) leukemia
[14] = test system: HOP-62 NSCLC
[15] = test system: HOP-92 NSCLC
[16] = test system: HS 578T breast
[17] = test system: HT29 colon
[18] = test system: IGROV1 ovarian
[19] = test system: KM12 colon
[20] = test system: LOX IMVI melanoma
[21] = test system: M14 melanoma
[22] = test system: MCF7 breast
[23] = test system: MDA-MB-231 breast
[24] = test system: MDA-MB-435
[25] = test system: MDA-N
[26] = test system: MOLT-4 leukemia
[27] = test system: NCI-H226 lung
[28] = test system: NCI-H23 lung
[29] = test system: NCI-H460 lung
[30] = test system: NCI-H522 lung
[31] = test system: NCI/ADR-RES ovarian
[32] = test system: OVCAR-3 ovarian
[33] = test system: OVCAR-4 ovarian
[34] = test system: OVCAR-5 ovarian
[35] = test system: OVCAR-8 ovarian
[36] = test system: PC-3 prostate
[37] = test system: RXF 393 renal
[38] = test system: SF-268 CNS
[39] = test system: SF-295 CNS
[40] = test system: SF-539 CNS
[41] = test system: SK-MEL-2 melanoma
[42] = test system: SK-MEL-28 melanoma
[43] = test system: SK-MEL-5 melanoma
[44] = test system: SK-OV-3 ovarian
[45] = test system: SN12C renal
[46] = test system: SNB-19 CNS
[47] = test system: SNB-75 CNS
[48] = test system: SW-620 colon
[49] = test system: TK-10 renal
[50] = test system: U251 CNS
[51] = test system: UACC-257 melanoma
[52] = test system: UACC-62 melanoma
[53] = test system: UO-31 renal
[54] = test system: A498 renal
[55] = test system: K-562 leukemia
[56] = test system: MALME-3M melanoma
[57] = test system: RPMI-8226 leukemia
[58] = test system: T-47D breast

COC(=O)C(=O)C(C(=O)C(=O)Nc1cccc([N+](=O)[O-])c1)c1nc2ccc(Cl)cc2[nH]c1=O (centres undefined)
TGI [1]: > 100 µM
TGI [2]: > 100 µM
TGI [3]: > 100 µM
TGI [4]: > 100 µM
TGI [5]: > 100 µM
TGI [6]: > 100 µM
TGI [7]: > 100 µM
TGI [8]: > 100 µM
TGI [9]: > 100 µM
TGI [10]: > 100 µM
TGI [11]: > 100 µM
TGI [12]: > 100 µM
TGI [13]: > 100 µM
TGI [14]: > 100 µM
TGI [15]: > 100 µM
TGI [16]: > 100 µM
TGI [17]: > 100 µM
TGI [18]: > 100 µM
TGI [19]: > 100 µM
TGI [20]: > 100 µM
TGI [21]: > 100 µM
TGI [22]: > 100 µM
TGI [23]: > 100 µM
TGI [24]: > 100 µM
TGI [25]: > 100 µM
TGI [26]: > 100 µM
TGI [27]: > 100 µM
TGI [28]: > 100 µM
TGI [29]: > 100 µM
TGI [30]: > 100 µM
TGI [31]: > 100 µM
TGI [32]: > 100 µM
TGI [33]: > 100 µM
TGI [34]: > 100 µM
TGI [35]: > 100 µM
TGI [36]: > 100 µM
TGI [37]: > 100 µM
TGI [38]: > 100 µM
TGI [39]: > 100 µM
TGI [40]: > 100 µM
TGI [41]: > 100 µM
TGI [42]: > 100 µM
TGI [43]: > 100 µM
TGI [44]: > 100 µM
TGI [45]: > 100 µM
TGI [46]: > 100 µM
TGI [47]: > 100 µM
TGI [48]: > 100 µM
TGI [49]: > 100 µM
TGI [50]: > 100 µM
TGI [51]: > 100 µM
TGI [52]: > 100 µM
TGI [53]: > 100 µM

O=Nn1c2ccccc2c2cc([N+](=O)[O-])ccc21
TGI [54]: 26.9 µM
TGI [2]: 73.2 µM
TGI [3]: 29.3 µM
TGI [4]: 38.3 µM
TGI [5]: 31.6 µM
TGI [6]: 44.5 µM
TGI [7]: > 100 µM
TGI [8]: 28.5 µM
TGI [9]: 36.3 µM
TGI [10]: > 100 µM
TGI [11]: 32.5 µM
TGI [12]: > 100 µM
TGI [13]: > 100 µM
TGI [14]: 25.7 µM
TGI [15]: 29.8 µM
TGI [16]: 82.9 µM
TGI [17]: 68 µM
TGI [18]: 30.2 µM
TGI [55]: > 100 µM
TGI [19]: 42 µM
TGI [20]: 30.9 µM
TGI [21]: 47.9 µM
TGI [56]: 38.5 µM
TGI [22]: 58 µM
TGI [23]: 39.9 µM
TGI [24]: 32.8 µM
TGI [25]: 37.5 µM
TGI [26]: 70.9 µM
TGI [28]: 38.3 µM
TGI [29]: 54.2 µM
TGI [30]: 29.1 µM
TGI [31]: 74 µM
TGI [32]: 33.6 µM
TGI [33]: 32.1 µM
TGI [34]: 47.7 µM
TGI [35]: 31.6 µM
TGI [36]: 35 µM
TGI [57]: 38.8 µM
TGI [37]: 30.8 µM
TGI [38]: 32.7 µM
TGI [39]: 28.5 µM
TGI [40]: 37.2 µM
TGI [41]: 96.8 µM
TGI [42]: 39.3 µM
TGI [43]: > 100 µM
TGI [44]: 30.1 µM
TGI [45]: 37 µM
TGI [46]: 58.1 µM
TGI [47]: 19.5 µM
TGI [48]: 59.7 µM
TGI [58]: > 100 µM
TGI [49]: 32.1 µM
TGI [50]: 33.1 µM
TGI [51]: 56.5 µM
TGI [52]: 32.9 µM
TGI [53]: 49.2 µM

— PubChem BioAssay (NCI)
